Each block holds one compound with its values, some of them ahead of it.
System: 699152-130-R-J1-PDC complex spheroid growth
Assay: Anticancer human tumor 699152-130-R-J1-PDC patient-derived pancreatic carcinoma cell line growth inhibition [AhR]
Conditions: for IC50: curve of first compound; for viability, T/C: stronger effect = lower value
Procedure, shortened: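 Complex tumor spheroids co-cultured with HUVEC and human MSC stroma; AhR antagonists tested in combination with standard-of-care and investigational agents. Top concentration at or near clinical Cmax (else 10 microM), half-log dilutions; growth expressed as percent test/control.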

[1] = second compound 0.1 µM, first compound 0.0316 µM
[2] = second compound 0.1 µM, first compound 0.1 µM
[3] = second compound 0.1 µM, first compound 0.316 µM
[4] = second compound 0.1 µM, first compound 1 µM
[5] = second compound 0.1 µM, first compound 3.16 µM
[6] = second compound 0.1 µM, first compound 10 µM
[7] = second compound 0.316 µM, first compound 0.0316 µM
[8] = second compound 0.316 µM, first compound 0.1 µM
[9] = second compound 0.316 µM, first compound 0.316 µM
[10] = second compound 0.316 µM, first compound 1 µM
[11] = second compound 0.316 µM, first compound 3.16 µM
[12] = second compound 0.316 µM, first compound 10 µM
[13] = second compound 1 µM, first compound 0.0316 µM
[14] = second compound 1 µM, first compound 0.1 µM
[15] = second compound 1 µM, first compound 0.316 µM
[16] = second compound 1 µM, first compound 1 µM
[17] = second compound 1 µM, first compound 3.16 µM
[18] = second compound 1 µM, first compound 10 µM
[19] = second compound 3.16 µM, first compound 0.0316 µM
[20] = second compound 3.16 µM, first compound 0.1 µM
[21] = second compound 3.16 µM, first compound 0.316 µM
[22] = second compound 3.16 µM, first compound 1 µM
[23] = second compound 3.16 µM, first compound 3.16 µM
[24] = second compound 3.16 µM, first compound 10 µM
[25] = second compound 10 µM, first compound 0.0316 µM
[26] = second compound 10 µM, first compound 0.1 µM
[27] = second compound 10 µM, first compound 0.316 µM
[28] = second compound 10 µM, first compound 1 µM
[29] = second compound 10 µM, first compound 3.16 µM
[30] = second compound 10 µM, first compound 10 µM
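Also: compound exposure lasted 7 days after spheroids had grown for 3 days.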

IC50 (second compound 0.1 µM): 831 nM
IC50 (second compound 0.316 µM): 765 nM
IC50 (second compound 1 µM): 679 nM
IC50 (second compound 3.16 µM): 626 nM
IC50 (second compound 10 µM): 602 nM
Compound: NS(=O)(=O)OCC1CC(n2ccc3c(NC4CCc5ccccc54)ncnc32)CC1O (stereo not given) + CC(CO)NC(=O)c1cc(-c2ccc(Cl)cc2)nn(-c2cnn(C)c2)c1=O
viability, T/C [1]: 108%
viability, T/C [2]: 127%
viability, T/C [3]: 120%
viability, T/C [4]: 36.9%
viability, T/C [5]: 25.2%
viability, T/C [6]: 29.3%
viability, T/C [7]: 116%
viability, T/C [8]: 132%
viability, T/C [9]: 97.2%
viability, T/C [10]: 36.8%
viability, T/C [11]: 27.5%
viability, T/C [12]: 29.1%
viability, T/C [13]: 115%
viability, T/C [14]: 126%
viability, T/C [15]: 91.1%
viability, T/C [16]: 30.4%
viability, T/C [17]: 23.1%
viability, T/C [18]: 31.4%
viability, T/C [19]: 114%
viability, T/C [20]: 127%
viability, T/C [21]: 80.2%
viability, T/C [22]: 31.6%
viability, T/C [23]: 25.5%
viability, T/C [24]: 30.6%
viability, T/C [25]: 115%
viability, T/C [26]: 104%
viability, T/C [27]: 69.5%
viability, T/C [28]: 34.1%
viability, T/C [29]: 27.1%
viability, T/C [30]: 30.8%

IC50 (second compound 0.1 µM): 349 nM
IC50 (second compound 0.316 µM): 342 nM
IC50 (second compound 1 µM): 356 nM
IC50 (second compound 3.16 µM): 117 nM
IC50 (second compound 10 µM): < 31.6 nM
Compound: COc1cccc2c1C(=O)c1c(O)c3c(c(O)c1C2=O)CC(O)(C(=O)CO)CC3OC1CC(N)C(O)C(C)O1 (stereo not given) + Cc1cncc(-c2nc(NCCc3c[nH]c4ccccc34)c3ncn(C(C)C)c3n2)c1
viability, T/C [1]: 67.3%
viability, T/C [2]: 64.1%
viability, T/C [3]: 51.4%
viability, T/C [4]: 25.4%
viability, T/C [5]: 2.77%
viability, T/C [6]: 7.37%
viability, T/C [7]: 62.9%
viability, T/C [8]: 58.7%
viability, T/C [9]: 51.6%
viability, T/C [10]: 22.9%
viability, T/C [11]: 2.99%
viability, T/C [12]: 7.49%
viability, T/C [13]: 70.8%
viability, T/C [14]: 71.5%
viability, T/C [15]: 52.5%
viability, T/C [16]: 20.9%
viability, T/C [17]: 3.69%
viability, T/C [18]: 6.86%
viability, T/C [19]: 51.5%
viability, T/C [20]: 53.3%
viability, T/C [21]: 34.7%
viability, T/C [22]: 5.89%
viability, T/C [23]: 4.86%
viability, T/C [24]: 7.43%
viability, T/C [25]: 14.6%
viability, T/C [26]: 16.3%
viability, T/C [27]: 14.2%
viability, T/C [28]: 1.29%
viability, T/C [29]: 5.06%
viability, T/C [30]: 5.36%

IC50 (second compound 0.1 µM): > 1000 nM
IC50 (second compound 0.316 µM): > 1000 nM
IC50 (second compound 1 µM): > 1000 nM
IC50 (second compound 3.16 µM): > 1000 nM
IC50 (second compound 10 µM): > 1000 nM
Compound: Nc1ncn(C2CC(O)C(CO)O2)c(=O)n1 (stereo not given) + Cc1ccccc1N=Nc1ccc(NC(=O)c2ccnn2C)c(C)c1
viability, T/C (second compound 0.1 µM, first compound 0.00316 µM): 98.3%
viability, T/C (second compound 0.1 µM, first compound 0.01 µM): 98.6%
viability, T/C [1]: 93.7%
viability, T/C [2]: 86.6%
viability, T/C [3]: 81.9%
viability, T/C [4]: 78.7%
viability, T/C (second compound 0.316 µM, first compound 0.00316 µM): 95.3%
viability, T/C (second compound 0.316 µM, first compound 0.01 µM): 91.7%
viability, T/C [7]: 99.7%
viability, T/C [8]: 90.5%
viability, T/C [9]: 85.6%
viability, T/C [10]: 80.6%
viability, T/C (second compound 1 µM, first compound 0.00316 µM): 93.9%
viability, T/C (second compound 1 µM, first compound 0.01 µM): 95.6%
viability, T/C [13]: 87.9%
viability, T/C [14]: 91.2%
viability, T/C [15]: 88.7%
viability, T/C [16]: 88.5%
viability, T/C (second compound 3.16 µM, first compound 0.00316 µM): 104%
viability, T/C (second compound 3.16 µM, first compound 0.01 µM): 102%
viability, T/C [19]: 86.8%
viability, T/C [20]: 77.2%
viability, T/C [21]: 104%
viability, T/C [22]: 86.4%
viability, T/C (second compound 10 µM, first compound 0.00316 µM): 117%
viability, T/C (second compound 10 µM, first compound 0.01 µM): 103%
viability, T/C [25]: 75.3%
viability, T/C [26]: 83.9%
viability, T/C [27]: 86.5%
viability, T/C [28]: 85.6%
